Calls of active or inactive are those of the source. The calls are words filed in the database; no cut-off is given here.

For data set [1], the system named is MIA PaCa-2. The experiment in a line: Induction of reactive oxygen species generation in human MIA PaCa-2 cells assessed as ROS level at 50 uM measured after 12 hrs by DCF-DA staining based flow cytometry (reference value: 461.5 +/- 57.3). Format: functional.
Data set [2] concerns MIA PaCa-2. The experiment in a line: Induction of reactive oxygen species generation in human MIA PaCa-2 cells at 50 uM measured after 12 hrs by DCF-DA staining based phase-contrast fluorescence microscopy. Type of data set: functional, cell-based.
A short description of data set [3]: Induction of GSH depletion in human Primary pancreatic epithelial cells assessed as cell population with low GSH level at 50 uM measured after 18 hrs by VB-48/propidium iodide staining based flow cytometry (reference value: 7%). Format: toxicity.
A short description of data set [4]: Induction of GSH depletion in human Primary pancreatic epithelial cells assessed as cell population with high GSH level at 50 uM measured after 18 hrs by VB-48/propidium iodide staining based flow cytometry (reference value: 93%). Format: toxicity.
For data set [5], the system named is MIA PaCa-2. The experiment in a line: Induction of GSH depletion in human MIA PaCa-2 assessed as cell population with low GSH level at 50 uM measured after 18 hrs by VB-48/propidium iodide staining based flow cytometry (reference value: 5%). Type of data set: functional.
Data set [6] concerns MIA PaCa-2. The data set can be described thus: Induction of GSH depletion in human MIA PaCa-2 assessed as cell population with high GSH level at 50 uM measured after 18 hrs by VB-48/propidium iodide staining based flow cytometry (reference value: 95%). Type of data set: functional.
The subject of data set [7] is MIA PaCa-2. The data set can be described thus: Induction of apoptosis in human MIA PaCa-2 cells measured after 24 to 48 hrs by Annexin-V-FITC/propidium iodide staining based flow cytometry. The note with it: dose 50-100 µM, time 24-48 hrs. Type of data set: functional, cell-based.
Data set [8] relates to MIA PaCa-2. The data set can be described thus: Induction of apoptosis in human MIA PaCa-2 cells assessed as viable cells at 50 uM measured after 24 hrs by Annexin-V-FITC/propidium iodide staining based flow cytometry (reference value: 74%). Format: functional. Conditions: read-out: Activity.
Data set [9] has as its system MIA PaCa-2. The experiment in a line: Induction of apoptosis in human MIA PaCa-2 cells assessed as early apoptotic cells at 50 uM measured after 24 hrs by Annexin-V-FITC/propidium iodide staining based flow cytometry (reference value: 13%). Format: functional.
Data set [10] deals with MIA PaCa-2. The data set can be described thus: Induction of apoptosis in human MIA PaCa-2 cells assessed as late apoptotic cells at 50 uM measured after 24 hrs by Annexin-V-FITC/propidium iodide staining based flow cytometry (reference value: 4%). Format: functional.
For data set [11], the system named is MIA PaCa-2. The data set can be described thus: Induction of apoptosis in human MIA PaCa-2 cells assessed as necrotic cells at 50 uM measured after 24 hrs by Annexin-V-FITC/propidium iodide staining based flow cytometry (reference value: 9%). Format: functional.
Data set [12] relates to MIA PaCa-2. The data set can be described thus: Induction of apoptosis in human MIA PaCa-2 cells assessed as viable cells at 100 uM measured after 24 hrs by Annexin-V-FITC/propidium iodide staining based flow cytometry (reference value: 74%). Type of data set: functional. The note with it: read-out: Activity.
Data set [13] deals with MIA PaCa-2. The data set can be described thus: Induction of apoptosis in human MIA PaCa-2 cells assessed as early apoptotic cells at 100 uM measured after 24 hrs by Annexin-V-FITC/propidium iodide staining based flow cytometry (reference value: 13%). Type of data set: functional.
Data set [14] relates to MIA PaCa-2. The experiment in a line: Induction of apoptosis in human MIA PaCa-2 cells assessed as late apoptotic cells at 100 uM measured after 24 hrs by Annexin-V-FITC/propidium iodide staining based flow cytometry (reference value: 4%). Type of data set: functional.
The test system of data set [15] is MIA PaCa-2. The experiment in a line: Induction of apoptosis in human MIA PaCa-2 cells assessed as necrotic cells at 100 uM measured after 24 hrs by Annexin-V-FITC/propidium iodide staining based flow cytometry (reference value: 9%). Format: functional.
The test system of data set [16] is MIA PaCa-2. The data set can be described thus: Induction of apoptosis in human MIA PaCa-2 cells assessed as viable cells at 50 uM measured after 48 hrs by Annexin-V-FITC/propidium iodide staining based flow cytometry (reference value: 71%). Format: functional. Conditions: read-out: Activity.
For data set [17], the system named is MIA PaCa-2. The data set can be described thus: Induction of apoptosis in human MIA PaCa-2 cells assessed as early apoptotic cells at 50 uM measured after 48 hrs by Annexin-V-FITC/propidium iodide staining based flow cytometry (reference value: 15%). Format: functional.
Data set [18] has as its system MIA PaCa-2. The experiment in a line: Induction of apoptosis in human MIA PaCa-2 cells assessed as late apoptotic cells at 50 uM measured after 48 hrs by Annexin-V-FITC/propidium iodide staining based flow cytometry (reference value: 3%). Format: functional.
In data set [19] the test system is MIA PaCa-2. The experiment in a line: Induction of apoptosis in human MIA PaCa-2 cells assessed as necrotic cells at 50 uM measured after 48 hrs by Annexin-V-FITC/propidium iodide staining based flow cytometry (reference value: 11%). Type of data set: functional.
Data set [20] has as its system MIA PaCa-2. The experiment in a line: Induction of apoptosis in human MIA PaCa-2 cells assessed as viable cells at 100 uM measured after 48 hrs by Annexin-V-FITC/propidium iodide staining based flow cytometry (reference value: 71%). Type of data set: functional. The note with it: read-out: Activity.
In data set [21] the test system is MIA PaCa-2. The data set can be described thus: Induction of apoptosis in human MIA PaCa-2 cells assessed as early apoptotic cells at 100 uM measured after 48 hrs by Annexin-V-FITC/propidium iodide staining based flow cytometry (reference value: 15%). Format: functional.
Data set [22] has as its system MIA PaCa-2. The experiment in a line: Induction of apoptosis in human MIA PaCa-2 cells assessed as late apoptotic cells at 100 uM measured after 48 hrs by Annexin-V-FITC/propidium iodide staining based flow cytometry (reference value: 3%). Type of data set: functional.
Data set [23] has as its system MIA PaCa-2. The data set can be described thus: Induction of apoptosis in human MIA PaCa-2 cells assessed as necrotic cells at 100 uM measured after 48 hrs by Annexin-V-FITC/propidium iodide staining based flow cytometry (reference value: 11%). Type of data set: functional.
Data set [24] has as its system MIA PaCa-2. The experiment in a line: Inhibition of GST activity in human MIA PaCa-2 cells at 50 uM using CDNB as substrate measured after 6 hrs by spectrophotometric method. Format: cell-based.

`O=C(/C=C/c1cn(-c2ccccc2)nc1-c1ccc(-c2ccccc2)cc1)c1cc(F)ccc1O`: in the data set with MIA PaCa-2 [1], the Activity was 540.
The same measure, in the same setting: under `O=C(/C=C/c1cn(-c2ccccc2)nc1-c1ccc(-c2ccccc2)cc1)c1ccc(O)cc1` stands 639.
Same read-out and setting: under `COc1cccc(O)c1C(=O)/C=C/c1cn(-c2ccccc2)nc1-c1ccc(-c2ccccc2)cc1` stands 580.5; under `CC1=CC(=O)c2ccccc2C1=O` [MENADIONE], 1160.5.
Same read-out and setting: with `COc1ccc(C(=O)/C=C/c2cn(-c3ccc(F)cc3)nc2-c2ccc(-c3ccccc3)cc2)cc1OC` the figure was 534.5; with `COc1cccc(C(=O)/C=C/c2cn(-c3ccc(F)cc3)nc2-c2ccc(-c3ccccc3)cc2)c1`, 675; with `O=C(/C=C/c1cn(-c2ccccc2)nc1-c1ccc(-c2ccccc2)cc1)c1cc(Cl)ccc1O`, 661.
For the compound `COc1ccc(C(=O)/C=C/c2cn(-c3ccc(OC)cc3)nc2-c2ccc(-c3ccccc3)cc2)cc1`, the Activity result in the data set on MIA PaCa-2 [2] was “Active; Most Effective Among The Tested Compounds”; in data set [3] it was 14%; in data set [4], 86%; with MIA PaCa-2 [5], 44%; in the data set on MIA PaCa-2 [6] it was 55%; in the data set with MIA PaCa-2 [7], “Dose-dependent-effect”. The Activity was determined as 39% in the data set on MIA PaCa-2 [9]; 7% in the data set with MIA PaCa-2 [10]; 6% in the data set on MIA PaCa-2 [11]; 60% in the data set with MIA PaCa-2 [13]; 6% in the data set on MIA PaCa-2 [14]; 3% with MIA PaCa-2 [15]. For the same compound, the Activity in the data set on MIA PaCa-2 [17] was determined as 65%; in the data set on MIA PaCa-2 [18], 8%; with MIA PaCa-2 [19], 5%; in the data set with MIA PaCa-2 [21], 74%; in the data set with MIA PaCa-2 [22], 11%; with MIA PaCa-2 [23], 4%. The Activity in the data set on MIA PaCa-2 [1] stood at 799.5. In addition, the figures for the viability at 50 µM with MIA PaCa-2 [8] and with MIA PaCa-2 [16] were 49% and 22%, respectively. The viability at 100 µM in the data set on MIA PaCa-2 [12] was found to be 30%; in the data set with MIA PaCa-2 [20], 11%. For the same compound, the inhibition entry in the data set with MIA PaCa-2 [24] was “Active”.
For `COc1ccc(C(=O)/C=C/c2cn(-c3ccc(F)cc3)nc2-c2ccc(-c3ccccc3)cc2)cc1`, in the data set on MIA PaCa-2 [1], the Activity came out at 529.5.
On to `COc1ccccc1C(=O)/C=C/c1cn(-c2ccccc2)nc1-c1ccc(-c2ccccc2)cc1`, for which the Activity with MIA PaCa-2 [1] was found to be 619.5.
For `COc1ccc(-n2cc(/C=C/C(=O)c3ccccc3OC)c(-c3ccc(-c4ccccc4)cc3)n2)cc1`, the Activity in the data set on MIA PaCa-2 [1] turned out to be 535.5.
On the same count and under the same terms, under `COc1cccc(C(=O)/C=C/c2cn(-c3ccccc3)nc2-c2ccc(-c3ccccc3)cc2)c1` stands 680.
Regarding `COc1ccc(-n2cc(/C=C/C(=O)c3cccc(OC)c3)c(-c3ccc(-c4ccccc4)cc3)n2)cc1`, the Activity with MIA PaCa-2 [1] is 720.5.

The record behind these values is ChEMBL document CHEMBL6114942, “(E)-3-(3-([1,1'-Biphenyl]-4-yl)-1-phenyl-1H-pyrazol-4-yl)-1-phenylprop-2-en-1-ones inducing reactive oxygen species generation through glutathione depletion” (Bioorg Med Chem Lett, 2025).
